Laboratory results taken from publication PMC9516332 (Frontiers in Oncology, 2022).

Experiments:
Test in all cases: Kinase panel profiling at 1 µmol/L (MSA or IMAP), percentage inhibition
Format in all cases: biochemical
[1] = target: panel of 255 wild-type kinases (Homo sapiens, UniProt O43683); conditions: BUB1/BUB3 kinase assay; 1 µmol/L single concentration; read-out: %-inhibition BUB1/BUB3
[2] = target: panel of 255 wild-type kinases (Homo sapiens, UniProt P17252); conditions: kinase PKCα; 1 µmol/L single concentration; read-out: %-inhibition at 1 µmol/L, PKCα
[3] = target: T1, panel of 255 wild-type kinases (Homo sapiens, UniProt P30530); conditions: AXL kinase assay; 1 µmol/L single concentration; read-out: %-inhibition AXL
T1 sequence (P30530 26-894): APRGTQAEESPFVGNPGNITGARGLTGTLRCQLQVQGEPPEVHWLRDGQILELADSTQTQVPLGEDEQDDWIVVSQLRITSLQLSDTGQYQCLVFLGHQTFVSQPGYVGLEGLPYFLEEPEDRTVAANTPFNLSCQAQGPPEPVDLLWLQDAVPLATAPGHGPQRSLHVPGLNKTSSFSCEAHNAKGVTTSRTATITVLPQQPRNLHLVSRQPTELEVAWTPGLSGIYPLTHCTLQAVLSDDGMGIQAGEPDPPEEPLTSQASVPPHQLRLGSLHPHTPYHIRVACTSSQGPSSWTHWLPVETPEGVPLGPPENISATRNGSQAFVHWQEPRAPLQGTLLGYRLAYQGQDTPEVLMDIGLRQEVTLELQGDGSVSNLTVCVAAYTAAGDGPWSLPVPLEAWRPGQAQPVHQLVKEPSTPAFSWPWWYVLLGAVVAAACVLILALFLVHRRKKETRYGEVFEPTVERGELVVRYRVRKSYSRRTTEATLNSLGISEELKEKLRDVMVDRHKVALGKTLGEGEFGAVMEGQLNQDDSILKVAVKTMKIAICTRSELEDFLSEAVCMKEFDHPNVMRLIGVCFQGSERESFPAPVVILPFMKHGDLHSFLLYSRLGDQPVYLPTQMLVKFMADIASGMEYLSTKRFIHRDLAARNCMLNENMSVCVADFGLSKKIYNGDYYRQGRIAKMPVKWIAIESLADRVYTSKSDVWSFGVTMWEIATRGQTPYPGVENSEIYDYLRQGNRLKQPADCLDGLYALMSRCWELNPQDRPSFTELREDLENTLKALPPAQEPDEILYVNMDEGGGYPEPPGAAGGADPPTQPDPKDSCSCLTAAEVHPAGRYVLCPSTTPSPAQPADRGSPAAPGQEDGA

[4] = target: panel of 255 wild-type kinases (Homo sapiens, UniProt P51812); conditions: kinase RSK2; 1 µmol/L single concentration; read-out: %-inhibition at 1 µmol/L, RSK2
[5] = target: panel of 255 wild-type kinases (Homo sapiens, UniProt P54764); conditions: kinase EPHA4; 1 µmol/L single concentration; read-out: %-inhibition at 1 µmol/L, EPHA4
[6] = target: panel of 255 wild-type kinases (Homo sapiens, UniProt Q15759); conditions: p38β; 1 µmol/L single concentration; read-out: %-inhibition, p38β
[7] = target: panel of 255 wild-type kinases (Homo sapiens, UniProt Q96GD4); conditions: AurB kinase assay; 1 µmol/L single concentration; read-out: %-inhibition AurB
[8] = target: T2, panel of 255 wild-type kinases (Homo sapiens, UniProt Q96PY6); conditions: NEK1; 1 µmol/L single concentration; read-out: %-inhibition, NEK1
T2 sequence (Q96PY6 1-1258): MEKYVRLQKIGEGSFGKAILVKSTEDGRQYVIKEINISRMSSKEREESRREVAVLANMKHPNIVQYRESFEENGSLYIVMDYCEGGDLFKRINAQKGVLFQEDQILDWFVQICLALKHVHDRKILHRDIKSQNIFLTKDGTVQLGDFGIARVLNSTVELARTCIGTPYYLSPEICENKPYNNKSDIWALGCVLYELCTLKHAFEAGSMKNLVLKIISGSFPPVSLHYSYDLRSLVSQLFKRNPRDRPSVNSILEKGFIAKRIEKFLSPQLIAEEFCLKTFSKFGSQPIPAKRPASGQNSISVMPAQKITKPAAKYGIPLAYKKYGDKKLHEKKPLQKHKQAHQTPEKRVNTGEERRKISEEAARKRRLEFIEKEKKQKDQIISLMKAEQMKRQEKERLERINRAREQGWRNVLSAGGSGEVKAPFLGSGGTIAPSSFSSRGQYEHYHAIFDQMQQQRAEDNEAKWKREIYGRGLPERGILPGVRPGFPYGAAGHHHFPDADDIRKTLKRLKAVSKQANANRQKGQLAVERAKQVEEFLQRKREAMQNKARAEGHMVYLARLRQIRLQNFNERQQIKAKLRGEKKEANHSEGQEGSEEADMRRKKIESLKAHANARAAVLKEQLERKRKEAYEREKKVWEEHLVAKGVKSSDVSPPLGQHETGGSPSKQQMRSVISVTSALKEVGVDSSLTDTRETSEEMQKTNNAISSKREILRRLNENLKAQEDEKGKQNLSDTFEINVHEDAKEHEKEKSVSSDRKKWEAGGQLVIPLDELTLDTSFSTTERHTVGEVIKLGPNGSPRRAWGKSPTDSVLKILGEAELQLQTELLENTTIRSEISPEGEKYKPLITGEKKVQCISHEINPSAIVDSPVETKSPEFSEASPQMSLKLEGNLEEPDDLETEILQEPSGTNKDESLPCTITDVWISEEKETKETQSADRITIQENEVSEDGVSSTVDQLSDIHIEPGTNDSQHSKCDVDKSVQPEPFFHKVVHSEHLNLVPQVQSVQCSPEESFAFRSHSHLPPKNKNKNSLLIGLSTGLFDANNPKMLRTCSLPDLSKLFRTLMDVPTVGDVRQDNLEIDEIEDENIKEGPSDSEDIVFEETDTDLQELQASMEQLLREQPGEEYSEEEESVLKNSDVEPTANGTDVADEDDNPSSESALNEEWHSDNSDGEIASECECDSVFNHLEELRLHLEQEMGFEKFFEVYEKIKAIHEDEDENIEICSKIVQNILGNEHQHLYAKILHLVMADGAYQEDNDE

[9] = target: panel of 255 wild-type kinases (Homo sapiens, UniProt Q9H2G2); conditions: kinase SLK; 1 µmol/L single concentration; read-out: %-inhibition at 1 µmol/L, SLK
[10] = target: panel of 255 wild-type kinases (Homo sapiens, UniProt Q9Y6E0); conditions: MST3; 1 µmol/L single concentration; read-out: %-inhibition, MST3

Structure (SMILES) | inhibition at 1 µM [1] [%] | inhibition at 1 µM [2] [%] | inhibition at 1 µM [3] [%] | inhibition at 1 µM [4] [%] | inhibition at 1 µM [5] [%] | inhibition at 1 µM [6] [%] | inhibition at 1 µM [7] [%] | inhibition at 1 µM [8] [%] | inhibition at 1 µM [9] [%] | inhibition at 1 µM [10] [%]
FC(F)(F)c1ccc(CNc2ccc(Cc3c[nH]c4ncc(Cl)cc34)cn2)cn1 [pexidartinib] | 5.7 | -8 | 39 | 14 | 1.65 | 0.844 | 60 | -1.38 | 11 | 5
CO[C@]1(C(=O)N[C@@H](C)c2ccc(-n3cc(F)cn3)nc2)CC[C@H](c2nc(C)cc(Nc3cc(C)[nH]n3)n2)CC1 [pralsetinib] | -0.908 | 3 | 92 | 23 | 52 | -3.42 | 38 | -5 | 17 | 8
CCn1c(=O)c(-c2cc(NC(=O)Nc3ccccc3)c(F)cc2Br)cc2cnc(NC)cc21 [ripretinib] | 2.76 | -1.85 | 4 | 3.31 | 101 | 88 | 5 | -1.3 | 18 | -4
COc1ccc(CN2C3CC2CN(c2ccc(-c4cc(OCC(C)(C)O)cn5ncc(C#N)c45)cn2)C3)cn1 [selpercatinib] | 19 | 3.23 | 93 | 47 | 58 | -1.85 | 79 | -0.568 | 14 | 6
Cn1cnc2c(F)c(Nc3ccc(Br)cc3Cl)c(C(=O)NOCCO)cc21 [selumetinib] | -4 | 0.203 | 26 | -1.52 | -2.57 | -1.71 | 12 | -5 | 8 | 3
Cc1cc(Nc2ncnc3ccc(NC4=NC(C)(C)CO4)cc23)ccc1Oc1ccn2ncnc2c1 [tucatinib] | 0.842 | 5 | 22 | -3 | -2.34 | -3.42 | -0.568 | 1.77 | 11 | 10
C=CC(=O)N1CCC([C@@H]2CCNc3c(C(N)=O)c(-c4ccc(Oc5ccccc5)cc4)nn32)CC1 [zanubrutinib] | -6 | -2.63 | 4.56 | -6 | -0.204 | 4.54 | -4 | -4 | 2.36 | 0.0873
